Experiment [1] deals with T1, human Nav1.7 channels stably expressed in HEK 293 cells (Homo sapiens, UniProt Q15858).
T1 construct: expressed in transfected cells
As to the kind of experiment: IonWorks Quattro automated patch-clamp, state-dependent inhibition of Nav1.7. It is filed as cell-based. To be noted: inactivated state block, double-pulse protocol, holding -100 mV, read-out: potency for the Nav 1.7 sodium ion channel (as measured by IonWorks). The method, then: (§1) Compounds were tested on human Nav1.7 and Nav1.5 channels stably expressed in HEK 293 cells. […] Cells were sealed on a planar substrate using the Population Patch Plate (PPC) technology. Electrical access was obtained using both nystatin and amphotericin. A double-pulse protocol was used for the determination of IC50 values for inactivated state block. Nav1.7 and Nav1.5 expressing cells were voltage clamped at −100 mV and −110 mV, respectively. A depolarizing prepulse to −10 mV (Nav1.7) or −30 mV (Nav1.5) for 1000 ms followed by a 10 ms repolarization to −100 mV (Nav1.7) or −110 mV (Nav1.5) was given to generate fractional channel inactivation of ˜50%, followed by a 10 ms test pulse to −10 mV (Nav1.7) or −30 mV (Nav1.5) to measure peak current in control conditions and after compound addition. The following recording solutions were used (mM). External: 150 NaCl, 2 CaCl2, 5 KCl, 1 Mg Cl2, 10 HEPES, 12 Dextrose; internal: 120 CsF, 30 CsCl, 10 EGTA, 5 HEPES, 5 NaF, 2 MgCl2.
(§2) For all electrophysiology experiments, offline analysis was used to determine percent inhibition as a function of drug concentration. IC50 values were determined by fitting to the Hill equation.
(§3) The various compounds in Examples 1 through 4 and Tables 1 through 3 exemplified above were assayed for activity and selectivity using the foregoing IonWorks® technique. The results are reported in the following paragraph in a format expressing the identification of the compound with reference Example and compound (e.g. Ex 1-1 is Example 1, compound 1) followed by the observed potency in nM and the ratio of Nav1.7 potency:Nav 1.5 potency as described here. […]

Experiment [2] addresses T2, human Nav1.5 channels stably expressed in HEK 293 cells (Homo sapiens, UniProt Q14524).
T2 construct: expressed in transfected cells
As to the kind of experiment: IonWorks Quattro automated patch-clamp, Nav1.5 (selectivity ratio versus Nav1.7). It is filed as cell-based. The following applies: selectivity for Nav1.7 over Nav1.5, inactivated state block. The method, then:
as §1, §2, §3
In general terms: The patch-clamp technique gives a direct electrical read-out from membranes.

Each structure is given as a SMILES string.

T2 sequence (Q14524 whole entry): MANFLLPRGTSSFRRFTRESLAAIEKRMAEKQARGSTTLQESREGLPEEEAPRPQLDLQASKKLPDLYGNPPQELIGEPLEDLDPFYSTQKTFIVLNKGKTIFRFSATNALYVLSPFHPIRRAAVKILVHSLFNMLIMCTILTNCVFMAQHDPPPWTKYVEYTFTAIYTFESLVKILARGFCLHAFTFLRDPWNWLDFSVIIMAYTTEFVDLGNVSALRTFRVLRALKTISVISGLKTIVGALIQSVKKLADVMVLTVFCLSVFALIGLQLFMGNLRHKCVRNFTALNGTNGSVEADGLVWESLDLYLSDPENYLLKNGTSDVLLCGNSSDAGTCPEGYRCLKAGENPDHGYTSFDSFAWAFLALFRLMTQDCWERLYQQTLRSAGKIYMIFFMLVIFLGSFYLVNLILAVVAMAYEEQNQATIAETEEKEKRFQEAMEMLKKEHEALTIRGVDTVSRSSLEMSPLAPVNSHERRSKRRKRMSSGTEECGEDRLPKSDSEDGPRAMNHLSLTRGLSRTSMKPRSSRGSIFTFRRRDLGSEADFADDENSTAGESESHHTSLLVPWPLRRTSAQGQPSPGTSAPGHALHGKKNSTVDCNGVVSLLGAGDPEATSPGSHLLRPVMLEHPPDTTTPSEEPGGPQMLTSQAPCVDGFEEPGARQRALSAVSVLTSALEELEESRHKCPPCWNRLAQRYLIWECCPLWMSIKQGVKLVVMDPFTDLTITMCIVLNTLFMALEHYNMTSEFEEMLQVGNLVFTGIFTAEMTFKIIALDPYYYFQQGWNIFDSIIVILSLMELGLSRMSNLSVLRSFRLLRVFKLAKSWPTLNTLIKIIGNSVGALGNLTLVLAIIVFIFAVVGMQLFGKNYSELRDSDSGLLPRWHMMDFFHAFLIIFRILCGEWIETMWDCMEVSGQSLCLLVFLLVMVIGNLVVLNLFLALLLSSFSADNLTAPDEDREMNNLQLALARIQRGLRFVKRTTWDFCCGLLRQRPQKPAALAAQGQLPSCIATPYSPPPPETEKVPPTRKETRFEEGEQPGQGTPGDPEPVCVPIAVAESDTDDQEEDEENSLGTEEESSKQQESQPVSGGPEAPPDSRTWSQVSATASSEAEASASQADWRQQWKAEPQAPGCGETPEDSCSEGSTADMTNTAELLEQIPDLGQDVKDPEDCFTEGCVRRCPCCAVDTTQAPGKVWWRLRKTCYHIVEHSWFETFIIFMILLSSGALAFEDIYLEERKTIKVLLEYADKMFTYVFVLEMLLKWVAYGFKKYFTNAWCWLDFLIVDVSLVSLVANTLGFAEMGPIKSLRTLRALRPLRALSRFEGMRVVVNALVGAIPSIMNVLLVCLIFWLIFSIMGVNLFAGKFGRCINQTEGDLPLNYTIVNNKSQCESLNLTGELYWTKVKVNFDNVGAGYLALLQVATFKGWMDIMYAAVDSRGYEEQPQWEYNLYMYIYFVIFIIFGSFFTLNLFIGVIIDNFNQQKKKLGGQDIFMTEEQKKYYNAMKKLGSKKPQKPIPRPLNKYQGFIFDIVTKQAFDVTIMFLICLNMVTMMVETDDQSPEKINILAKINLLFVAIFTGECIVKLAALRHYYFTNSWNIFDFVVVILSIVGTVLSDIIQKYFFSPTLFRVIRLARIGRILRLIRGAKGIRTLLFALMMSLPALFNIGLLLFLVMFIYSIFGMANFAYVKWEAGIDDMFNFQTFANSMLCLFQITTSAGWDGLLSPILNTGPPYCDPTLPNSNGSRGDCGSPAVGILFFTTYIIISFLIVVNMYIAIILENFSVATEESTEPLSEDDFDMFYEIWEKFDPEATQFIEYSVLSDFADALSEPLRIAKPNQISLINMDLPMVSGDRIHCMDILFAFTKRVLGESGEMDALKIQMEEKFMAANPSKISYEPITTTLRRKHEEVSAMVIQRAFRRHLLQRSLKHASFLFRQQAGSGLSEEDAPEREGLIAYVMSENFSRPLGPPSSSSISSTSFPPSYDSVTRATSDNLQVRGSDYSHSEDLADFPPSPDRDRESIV
T1 sequence (Q15858 whole entry): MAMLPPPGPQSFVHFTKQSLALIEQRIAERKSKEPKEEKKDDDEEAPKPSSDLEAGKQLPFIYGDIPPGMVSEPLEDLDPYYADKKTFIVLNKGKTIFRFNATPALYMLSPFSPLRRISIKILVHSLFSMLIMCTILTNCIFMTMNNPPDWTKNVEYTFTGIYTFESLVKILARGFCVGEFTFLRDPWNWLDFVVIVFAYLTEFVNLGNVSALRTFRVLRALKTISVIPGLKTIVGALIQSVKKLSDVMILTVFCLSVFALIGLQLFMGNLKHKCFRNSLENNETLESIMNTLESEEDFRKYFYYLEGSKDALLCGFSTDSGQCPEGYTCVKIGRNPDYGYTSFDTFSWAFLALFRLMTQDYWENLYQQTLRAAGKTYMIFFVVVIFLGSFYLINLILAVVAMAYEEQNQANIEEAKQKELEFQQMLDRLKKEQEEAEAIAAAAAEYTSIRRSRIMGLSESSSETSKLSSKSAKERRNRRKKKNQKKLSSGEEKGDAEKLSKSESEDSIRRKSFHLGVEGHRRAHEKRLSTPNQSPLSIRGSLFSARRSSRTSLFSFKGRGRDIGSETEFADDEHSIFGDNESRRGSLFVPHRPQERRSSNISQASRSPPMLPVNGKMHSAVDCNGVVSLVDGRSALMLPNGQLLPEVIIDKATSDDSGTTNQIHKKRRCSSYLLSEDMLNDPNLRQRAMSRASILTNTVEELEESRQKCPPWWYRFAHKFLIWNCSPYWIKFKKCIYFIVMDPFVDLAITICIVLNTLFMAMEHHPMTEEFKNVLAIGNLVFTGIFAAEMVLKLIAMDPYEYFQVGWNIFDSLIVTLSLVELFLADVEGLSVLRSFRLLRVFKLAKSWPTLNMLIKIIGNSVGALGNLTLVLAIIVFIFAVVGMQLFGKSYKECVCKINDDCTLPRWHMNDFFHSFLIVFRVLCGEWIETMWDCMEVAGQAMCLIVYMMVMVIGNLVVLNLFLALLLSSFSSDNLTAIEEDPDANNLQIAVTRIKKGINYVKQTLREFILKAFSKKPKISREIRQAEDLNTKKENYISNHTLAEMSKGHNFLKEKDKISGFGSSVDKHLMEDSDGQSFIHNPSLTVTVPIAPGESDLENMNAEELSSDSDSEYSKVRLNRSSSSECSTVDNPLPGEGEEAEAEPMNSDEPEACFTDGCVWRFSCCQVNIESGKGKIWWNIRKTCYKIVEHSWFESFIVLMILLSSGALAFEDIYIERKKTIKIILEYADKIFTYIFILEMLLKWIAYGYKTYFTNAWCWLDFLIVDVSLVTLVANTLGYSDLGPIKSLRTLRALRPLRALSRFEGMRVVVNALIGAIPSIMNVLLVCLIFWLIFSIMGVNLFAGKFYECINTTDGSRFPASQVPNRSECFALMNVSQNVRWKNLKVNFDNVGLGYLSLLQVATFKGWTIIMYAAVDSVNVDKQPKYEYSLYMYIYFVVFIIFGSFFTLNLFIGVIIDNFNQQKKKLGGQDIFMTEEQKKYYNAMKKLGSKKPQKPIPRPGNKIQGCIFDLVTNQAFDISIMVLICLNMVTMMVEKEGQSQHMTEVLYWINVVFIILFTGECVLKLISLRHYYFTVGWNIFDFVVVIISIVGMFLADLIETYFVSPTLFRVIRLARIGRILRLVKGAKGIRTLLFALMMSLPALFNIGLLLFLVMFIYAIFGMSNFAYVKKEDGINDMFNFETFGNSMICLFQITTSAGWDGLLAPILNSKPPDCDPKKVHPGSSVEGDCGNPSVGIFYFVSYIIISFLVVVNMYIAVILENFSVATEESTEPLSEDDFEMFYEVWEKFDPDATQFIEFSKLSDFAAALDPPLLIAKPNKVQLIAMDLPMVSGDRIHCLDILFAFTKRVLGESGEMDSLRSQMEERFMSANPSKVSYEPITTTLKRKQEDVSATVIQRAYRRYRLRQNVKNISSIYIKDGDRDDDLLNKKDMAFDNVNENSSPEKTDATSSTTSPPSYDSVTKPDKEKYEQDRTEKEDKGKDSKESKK

`O=S(=O)(Nc1ncc(F)s1)c1cc(Cl)c(NCCCCNCC2(O)CNC2)cc1F` [EX 2-6, 5-chloro-2-fluoro-N-(5-fluoro-1,3-thiazol-2-yl)-4-[(4-{[(3-hydroxyazetidin-3-yl)methyl]amino}butyl)amino] benzenesulfonamide]: in experiment [1], the IC50 is 14 nM. Also, in experiment [2], the “ratio of Nav1.7 potency:Nav 1.5 potency” value is listed as ≥ 2357.
For `O=S(=O)(Nc1ncc(F)s1)c1cc(Cl)c(NCCCCNC[C@@H]2C[C@H](O)CN2)cc1F` [EX 2-21, 5-chloro-2-fluoro-N-(5-fluoro-1,3-thiazol-2-yl)-4-{[4-({[(2S,4S)-4-hydroxypyrrolidin-2-yl]methyl}amino)butyl]amino} benzenesulfonamide], the IC50 in experiment [1] came out at 32 nM. The “ratio of Nav1.7 potency:Nav 1.5 potency” value in experiment [2] is listed as ≥ 344.
For `O=S(=O)(Nc1ncns1)c1cc(Cl)c(NCCCCNCC2(O)CNC2)cc1F` [EX 2-1, 5-chloro-2-fluoro-4-[(4-{[(3-hydroxyazetidin-3-yl)methyl]amino}butyl)amino]-N-1,2,4-thiadiazol-5-ylbenzenesulfonamide], the IC50 in experiment [1] stood at 16 nM. Also, the “ratio of Nav1.7 potency:Nav 1.5 potency” value in experiment [2] was ≥ 2063.
`NCC(O)CNCCCCNc1cc(F)c(S(=O)(=O)Nc2ncc(F)s2)cc1Cl` (single isomer, unassigned) [EX 2-18, 4-[(4-{[(2S or 2R)-3-amino-2-hydroxypropyl]amino}butyl)amino]-5-chloro-2-fluoro-N-(5-fluoro-1,3-thiazol-2-yl)benzenesulfonamide]: the IC50 in experiment [1] is 16 nM. Moreover, the “ratio of Nav1.7 potency:Nav 1.5 potency” value in experiment [2] is reported as ≥ 1000.
Turning to `NC[C@H](O)CNCCCCNc1cc(F)c(S(=O)(=O)Nc2ncns2)cc1Cl` [EX 1-1, 4-[(4-{[(2S)-3-amino-2-hydroxypropyl]amino}butyl)amino]-5-chloro-2-fluoro-N-1,2,4-thiadiazol-5-ylbenzenesulfonamide], the IC50 in experiment [1] turned out to be 50 nM. Also, in experiment [2], the “ratio of Nav1.7 potency:Nav 1.5 potency” value is reported as ≥ 660.
As for `O=S(=O)(Nc1ncc(F)s1)c1cc(Cl)c(NCCCCN[C@H]2CNC[C@@H]2O)cc1F` [EX 2-16, 5-chloro-2-fluoro-N-(5-fluoro-1,3-thiazol-2-yl)-4-[(4-{[(3S,4S)-4-hydroxypyrrolidin-3-yl]amino}butyl)amino] benzenesulfonamide], in experiment [1], the IC50 amounted to 32 nM. Besides, the “ratio of Nav1.7 potency:Nav 1.5 potency” value in experiment [2] is ≥ 1031.
The matching figures for `Cc1csc(NS(=O)(=O)c2cc(Cl)c(NCCCCNCC3(O)CNC3)cc2F)n1` [EX 1-9, 5-chloro-2-fluoro-4-[(4-{[(3-hydroxyazetidin-3-yl)methyl]amino}butyl)amino]-N-(4-methyl-1,3-thiazol-2-yl)-benzenesulfonamide]: 55 nM and ≥ 600.
Turning to `O=S(=O)(Nc1ncc(F)s1)c1cc(Cl)c(NCCCCNCCNCCO)cc1F` [EX 2-9, 5-chloro-2-fluoro-N-(5-fluoro-1,3-thiazol-2-yl)-4-{[4-({2-[(2-hydroxyethyl)amino]ethyl}amino)butyl]amino} benzenesulfonamide], the IC50 in experiment [1] came to 29 nM. For the same molecule, the “ratio of Nav1.7 potency:Nav 1.5 potency” value in experiment [2] is listed as ≥ 1138.
On the same counts, the results for `NC[C@H](O)CNCCCCNc1cc(F)c(S(=O)(=O)Nc2ncns2)cc1Br` [EX 1-7, 4-[(4-{[(2S)-3-amino-2-hydroxypropyl]-amino}butyl)amino]-5-bromo-2-fluoro-N-1,2,4-thiadiazol-5-yl-benzenesulfonamide] are 7 nM and ≥ 4714.
For `NCC1(O)CN(CCCCNc2cc(F)c(S(=O)(=O)Nc3ncns3)cc2Br)C1` [EX 1-11, 4-((4-(3-(aminomethyl)-3-hydroxyazetidin-1-yl)butyl)amino)-5-bromo-2-fluoro-N-(1,2,4-thiadiazol-5-yl)benzenesulfonamide], the IC50 in experiment [1] came to 6.6 nM. The “ratio of Nav1.7 potency:Nav 1.5 potency” value in experiment [2] is recorded as ≥ 5000.
In the case of `CC1(O)CN[C@H](CNCCCCNc2cc(F)c(S(=O)(=O)Nc3nccs3)cc2Cl)C1` (stereo partly drawn) [EX 3-1, 5-chloro-2-fluoro-4-((4-((((2S)-4-hydroxy-4-methylpyrrolidin-2-yl)methyl)amino)butyl)amino)-N-(thiazol-2-yl)benzenesulfonamide], in experiment [1], the IC50 came to 100 nM. Also, in experiment [2], the “ratio of Nav1.7 potency:Nav 1.5 potency” value is given as ≥ 330.
The matching figures for `O=S(=O)(Nc1ncns1)c1cc(Cl)c(NCCCCNCCNCCO)cc1F` [EX 2-4, 5-chloro-2-fluoro-4-{[4-({2-[(2-hydroxyethyl)amino]ethyl}amino)butyl]amino}-N-1,2,4-thiadiazol-5-ylbenzenesulfonamide]: 35 nM and ≥ 943.
As for `NC[C@@H](CO)NCCCCNc1cc(F)c(S(=O)(=O)Nc2ncc(F)s2)cc1Cl` [EX 2-36, 4-[(4-{[(1S)-2-amino-1-(hydroxymethyl)ethyl]amino}butyl)amino]-5-chloro-2-fluoro-N-(5-fiuoro-1,3-thiazol-2-yl)benzenesutfonamide], in experiment [1], the IC50 came out at 24 nM. Also, the “ratio of Nav1.7 potency:Nav 1.5 potency” value in experiment [2] is given as ≥ 1375.
With `O=S(=O)(Nc1ncns1)c1cc(Br)c(NCCCCN[C@@H]2CNC[C@H]2O)cc1F` [EX 2-44, 5-bromo-2-fluoro-4-((4-(((3R,4R)-4-hydroxypyrrolidin-3-yl)amino)butyl)amino)-N-(1,2,4-thiadiazol-5-yl)benzenesulfonamide], the IC50 in experiment [1] is 25 nM. In addition, the “ratio of Nav1.7 potency:Nav 1.5 potency” value in experiment [2] is on record as ≥ 1300.
The matching figures for `NC[C@@H](CO)NCCCCNc1cc(F)c(S(=O)(=O)Nc2ncns2)cc1Cl` [EX 2-37, 4-[(4-{[(1S)-2-amino-1-(hydroxymethyl)ethyl]amino}butyl)amino]-5-chloro-2-fluoro-N-1,2,4-thiadiazol-5-ylbenzenesulfonamide]: 27 nM and ≥ 1222.
Regarding `Cc1cc(S(=O)(=O)Nc2ncc(F)s2)c(F)cc1NCCCCNCC1(O)CNC1` [EX 1-4, 2-fluoro-N-(5-fluoro-1,3-thiazol-2-yl)-4-[(4-{[(3-hydroxyazetidin-3-yl)methyl]amino}butyl)amino]-5-methylbenzenesulfonamide], the IC50 in experiment [1] was 39 nM. Also, the “ratio of Nav1.7 potency:Nav 1.5 potency” value in experiment [2] is ≥ 846.
With `NC[C@H](CO)NCCCCNc1cc(F)c(S(=O)(=O)Nc2nccs2)cc1Cl` [EX 2-39, 4-[(4-{[(1R)-2-amino-1-(hydroxymethyl)ethyl)amino}butyl)amino]-5-chloro-2-fluoro-N-1,3-thiazol-2-ylbenzenesulfonamide], in experiment [1], the IC50 worked out at 60 nM. For the same molecule, the “ratio of Nav1.7 potency:Nav 1.5 potency” value in experiment [2] is ≥ 550.

These data come from US10221167B2, “Hydroxyalkylamine- and hydroxycycloalkylamine-substituted diamine-arylsulfonamide compounds with selective activity in voltage-gated sodium channels” (Merck Sharp & Dohme Corp., priority 2015, dated 2019).
